Measured values as given in patent US11555012B2 (Nimbus Artemis, Inc., priority 2018, dated 2023).
pIC50: −log10 of the molar value.

target: ACL (Homo sapiens (Human), UniProt P53396); test: ADP-Glo Assay
Sequence (P53396 other isoform, or with tags, fused parts or gaps isoform P53396-2): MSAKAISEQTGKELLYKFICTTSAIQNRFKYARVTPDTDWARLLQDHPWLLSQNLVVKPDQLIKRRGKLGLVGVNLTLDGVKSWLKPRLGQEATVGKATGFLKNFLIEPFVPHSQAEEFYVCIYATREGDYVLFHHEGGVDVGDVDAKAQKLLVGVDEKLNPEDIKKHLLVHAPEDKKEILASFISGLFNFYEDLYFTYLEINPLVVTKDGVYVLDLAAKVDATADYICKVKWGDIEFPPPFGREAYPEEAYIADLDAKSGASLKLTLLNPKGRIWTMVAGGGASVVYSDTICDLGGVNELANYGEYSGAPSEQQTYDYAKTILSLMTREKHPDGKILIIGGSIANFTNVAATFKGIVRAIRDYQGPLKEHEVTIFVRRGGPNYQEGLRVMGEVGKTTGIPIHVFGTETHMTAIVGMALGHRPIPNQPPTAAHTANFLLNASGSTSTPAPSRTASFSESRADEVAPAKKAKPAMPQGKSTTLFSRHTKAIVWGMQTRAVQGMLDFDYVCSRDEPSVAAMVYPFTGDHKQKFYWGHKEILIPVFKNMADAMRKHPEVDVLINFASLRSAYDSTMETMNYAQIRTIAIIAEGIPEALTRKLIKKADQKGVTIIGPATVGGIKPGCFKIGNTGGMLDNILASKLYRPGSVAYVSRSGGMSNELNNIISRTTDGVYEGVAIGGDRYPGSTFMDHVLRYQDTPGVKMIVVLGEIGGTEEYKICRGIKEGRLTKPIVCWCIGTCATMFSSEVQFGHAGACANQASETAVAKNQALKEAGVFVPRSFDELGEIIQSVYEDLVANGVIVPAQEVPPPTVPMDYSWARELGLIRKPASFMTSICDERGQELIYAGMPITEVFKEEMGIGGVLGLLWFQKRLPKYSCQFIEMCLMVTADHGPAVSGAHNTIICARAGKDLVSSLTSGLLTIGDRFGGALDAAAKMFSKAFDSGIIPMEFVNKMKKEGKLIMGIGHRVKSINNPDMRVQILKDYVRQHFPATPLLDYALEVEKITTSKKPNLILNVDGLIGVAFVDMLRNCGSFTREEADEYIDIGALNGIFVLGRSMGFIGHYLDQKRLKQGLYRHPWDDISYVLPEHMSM
Method: Compounds of the present invention were evaluated in an ADP-GLO assay as follows:
b) Add 0.1 μL diluted cpd solution to assay plate, each dose with 2 replicates c) Centrifuge 1000 RPM for 1 min d) Add 5 μL ACL working solution to 384-well assay plate, centrifuge 1000 RPM for 1 min e) Incubate at 25° C. for 15 min f) Add 5 μL substrate working solution to initiate reaction
h) Reference final conc: 30 uM starting Conc, 3× dilution, 11+0 points. Test cpd conc: 30/100 uM starting Conc, 3× dilution, 11+0 points. i) Incubate at 25° C. for 60 min j) Add 10 μL ADP Glo reagent, centrifuge 1000 RPM for 1 min k) Incubate at 25° C. for 40 min l) Add 20 μL kinase detection reagent, centrifuge 1000 RPM for 1 min m) Incubate at 25° C. for 40 min n) Read on Envision for US LUM as RLU

First: O=C(O)c1cc(Cl)c(Cl)c(S(=O)(=O)Nc2cc(-c3ccccc3)ccc2F)c1 [I-256]
Second: NC(=O)c1ccc(F)c(S(=O)(=O)Nc2cc(-c3ccccc3)ccc2F)c1 [I-429, 4-fluoro-3-(N-(4-fluoro-[1,1′-biphenyl]-3-yl)sulfamoyl)benzamide]
The pIC50 of the first is higher: 4.70 to 6.30 for the first, under 4.70 for the second.

`COc1ccc(-c2ccccc2)cc1NS(=O)(=O)c1ccccc1O` [I-528, 2-hydroxy-N-(4-methoxy-[1,1′-biphenyl]-3-yl)benzenesulfonamide] and `COc1ccc(-c2ccccc2)cc1NS(=O)(=O)c1cccc(C#N)c1` [I-396, 3-cyano-N-(2-methoxy-5-phenylphenyl) benzene-1-sulfonamide] cannot be ordered by pIC50: under 4.70 for the first, under 4.70 for the second.

`O=C(O)c1c(NS(=O)(=O)c2cc(Cl)cc(Cl)c2)sc2c1CCC2` [I-341, 2-((3,5-dichlorophenyl)sulfonamido)-5,6-dihydro-4H-cyclopenta[b]thiophene-3-carboxylic acid] and `O=C(O)c1ccsc1NS(=O)(=O)c1cc(Cl)cc(Cl)c1` [I-352, 2-((3,5-dichlorophenyl)sulfonamido)thiophene-3-carboxylic Acid] fall in the same range of pIC50: 4.70 to 6.30 for the first, 4.70 to 6.30 for the second.

`COc1ccc(-c2ccccc2)cc1NS(=O)(=O)c1cc(F)cc(F)c1O` [I-40, 3,5-difluoro-2-hydroxy-N-(2-methoxy-5-phenylphenyl) benzene-1-sulfonamide] and `COc1ccc(-c2ccccc2)cc1NS(=O)(=O)c1cc(CC(=O)O)cc(Cl)c1O` [I-68, 2-[3-chloro-4-hydroxy-5-[(2-methoxy-5-phenylphenyl)sulfamoyl]phenyl]acetic Acid] fall in the same range of pIC50: 4.70 to 6.30 for the first, 4.70 to 6.30 for the second.

`O=S(=O)(NCc1cc(-c2ccccc2)ccc1F)c1cc(Cl)cc(Cl)c1O` [I-125, 3,5-dichloro-N-((4-fluoro-[1,1′-biphenyl]-3-yl)methyl)-2-hydroxybenzenesulfonamide] and `CNC(=O)COc1c(Cl)cc(Cl)cc1S(=O)(=O)Nc1cc(-c2ccccc2)ccc1F` [I-152, 2-(2,4-dichloro-6-(N-(4-fluoro-[1,1′-biphenyl]-3-yl)sulfamoyl)phenoxy)-N-methylacetamide] fall in the same range of pIC50: 4.70 to 6.30 for the first, 4.70 to 6.30 for the second.

First: COc1c(Cl)cc(C(=O)N2CCC2)cc1S(=O)(=O)Nc1cc(-c2ccccc2)c(F)cc1F [I-378, 5-(azetidine-1-carbonyl)-3-chloro-N-[4,6-difluoro-[1,1-biphenyl]-3-yl]-2-methoxybenzene-1-sulfonamide]
Second: O=C(O)COc1c(Cl)cc(C(=O)N2CCC2)cc1S(=O)(=O)Nc1cc(-c2ccccc2)c(F)cc1F [I-199, 2-[4-(azetidine-1-carbonyl)-2-chloro-6-([4,6-difluoro-[1,1-biphenyl]-3-yl]sulfamoyl)phenoxy]acetic Acid]
The pIC50 of the first is lower: under 4.70 for the first, 4.70 to 6.30 for the second. The second is the more potent here.

`COC(=O)c1cccc(S(=O)(=O)Nc2cc(-c3ccccc3)ccc2OC)c1` [I-421, methyl 3-(N-(4-methoxy-[1,1′-biphenyl]-3-yl)sulfamoyl)benzoate] and `COC(=O)c1cc(Cl)c(OC)c(S(=O)(=O)Nc2cc(-c3ccccc3)ccc2OC)c1` [I-428, Methyl 3-chloro-4-methoxy-5-(N-(4-methoxy-[1,1′-biphenyl]-3-yl)sulfamoyl)benzoate] cannot be ordered by pIC50: under 4.70 for the first, under 4.70 for the second.

`O=S(=O)(NCc1nc(-c2cccc(F)c2)no1)c1cc(Cl)cc(Cl)c1O` [I-168] and `O=S(=O)(NCC1COc2ccccc2C1)c1cc(Cl)cc(Cl)c1O` (stereo not drawn) [I-185] fall in the same range of pIC50: 4.70 to 6.30 for the first, 4.70 to 6.30 for the second.

`Cc1cc(S(=O)(=O)Nc2cc(-c3ccccc3)ccc2C(=O)O)ccc1-n1cnnn1` [I-357] and `O=C(O)c1ccc(-c2ccccc2)cc1NS(=O)(=O)c1cccnc1Cl` [I-300] fall in the same range of pIC50: 4.70 to 6.30 for the first, 4.70 to 6.30 for the second.

First: O=C(O)c1cc(Cl)c(O)c(C(=O)Nc2cc(-c3ccccc3)c(F)cc2F)c1 [I-155, 3-chloro-5-((4,6-difluoro-[1,1′-biphenyl]-3-yl)carbamoyl)-4-hydroxybenzoic Acid]
Second: O=C(O)c1cc(Cl)c(O)c(S(=O)(=O)Nc2ccc(F)c(-c3ccccc3)c2F)c1 [I-444, 3-chloro-5-[(2,4-difluoro-3-phenylphenyl)sulfamoyl]-4-hydroxybenzoic acid]
The pIC50 of the first is higher: 4.70 to 6.30 for the first, under 4.70 for the second. The first is the more potent here.

`O=S(=O)(Nc1ccc(OCc2ccccc2)cc1)c1cc(Cl)cc(Cl)c1O` [I-171] and `O=S(=O)(Nc1cnc(-c2ccccc2)s1)c1cc(Cl)cc(Cl)c1O` [I-189] fall in the same range of pIC50: 4.70 to 6.30 for the first, 4.70 to 6.30 for the second.

First: N#Cc1cc(S(=O)(=O)Nc2cc(-c3ccccc3)c(F)cc2F)ccc1Cl [I-196, 4-chloro-3-cyano-N-(4,6-difluoro-[1,1′-biphenyl]-3-yl) benzenesulfonamide]
Second: CS(=O)(=O)c1cc(Cl)cc(S(=O)(=O)Nc2cc(-c3ccccc3)c(F)cc2F)c1 [I-392, 3-chloro-N-(4,6-difluoro-[1,1′-biphenyl]-3-yl)-5-(methylsulfonyl)benzenesulfonamide]
The pIC50 of the first is higher: 4.70 to 6.30 for the first, under 4.70 for the second. The first is the more potent here.

First: COc1cc(-c2ccccc2)ccc1NS(=O)(=O)c1cc(Cl)cc(Cl)c1C [I-403, 3,5-dichloro-N-(3-methoxy-[1,1′-biphenyl]-4-yl)-2-methylbenzenesulfonamide]
Second: COc1ccc(-c2ccccc2)cc1NS(=O)(=O)c1cc(-c2nn[nH]n2)cc(Cl)c1O [I-73, 3-chloro-2-hydroxy-N-(2-methoxy-5-phenylphenyl)-5-(2H-1,2,3,4-tetrazol-5-yl)benzene-1-sulfonamide]
The pIC50 of the first is lower: under 4.70 for the first, 4.70 to 6.30 for the second.

`CN(C)C(=O)c1cc(Cl)c(O)c(S(=O)(=O)Nc2cc(C3CC3)c(F)cc2F)c1` [I-231, 3-chloro-5-(N-(5-cyclopropyl-2,4-difluorophenyl)sulfamoyl)-4-hydroxy-N,N-dimethylbenzamide] and `O=C(O)c1cc(Cl)c(O)c(S(=O)(=O)Nc2ccc(F)cc2F)c1` [I-76, 3-chloro-5-[(2,4-difluorophenyl)sulfamoyl]-4-hydroxybenzoic Acid] fall in the same range of pIC50: 4.70 to 6.30 for the first, 4.70 to 6.30 for the second.

First: O=S(=O)(Nc1cc(-c2ccccc2)c(F)cc1F)c1cc(Cl)cc(-c2nn[nH]n2)c1 [I-72, 3-chloro-N-(2,4-difluoro-5-phenylphenyl)-5-(2H-1,2,3,4-tetrazol-5-yl)benzene-1-sulfonamide]
Second: O=C(COc1c(Cl)cc(C(=O)N2CCC2)cc1S(=O)(=O)Nc1cc(-c2ccccc2)c(F)cc1F)OCc1ccccc1 [I-375, benzyl 2-(4-(azetidine-1-carbonyl)-2-chloro-6-(N-(4,6-difluoro-[1,1′-biphenyl]-3-yl)sulfamoyl)phenoxy)acetate]
The pIC50 of the first is higher: 4.70 to 6.30 for the first, under 4.70 for the second. The first is the more potent here.

`O=C(O)c1ccc(-c2ccccc2)cc1NS(=O)(=O)CCC1CCCC1` [I-356] and `O=C(O)COc1c(Cl)cc(Cl)cc1C(=O)Nc1cc(-c2ccccc2)ccc1C(=O)O` [I-308, 3-(2-(carboxymethoxy)-3,5-dichlorobenzamido)-[1,1′-biphenyl]-4-carboxylic Acid] fall in the same range of pIC50: 4.70 to 6.30 for the first, 4.70 to 6.30 for the second.

First: COC(=O)c1cc(Cl)c(OC)c(S(=O)(=O)Nc2cc(-c3cccnc3)ccc2OC)c1 [I-42, Methyl 3-chloro-4-methoxy-5-(N-(2-methoxy-5-(pyridine-3-yl)phenyl)sulfamoyl)benzoate]
Second: COc1ccc(-c2ccccc2)cc1NS(=O)(=O)c1cc(C(=O)N2CCC2)cc(Cl)c1OC [I-374, 5-(azetidine-1-carbonyl)-3-chloro-2-methoxy-N-[4-methoxy-[1,1-biphenyl]-3-yl]benzene-1-sulfonamide]
The pIC50 of the first is higher: 4.70 to 6.30 for the first, under 4.70 for the second.

`O=C(O)c1sccc1NS(=O)(=O)c1cc(Cl)cc(Cl)c1` [I-362, 3-((3,5-dichlorophenyl)sulfonamido)thiophene-2-carboxylic Acid] and `O=S(=O)(NC1CCN(c2nc3ccccc3s2)CC1)c1cc(Cl)cc(Cl)c1O` [I-176] fall in the same range of pIC50: 4.70 to 6.30 for the first, 4.70 to 6.30 for the second.
